According to patent publication US20100003217A1, “Compounds and Pharmaceutical Compositions for the Treatment of Viral Infections” (priority 2008, published 2010):
“And” between values parts separate entries of the source, which are not always exact repeats. Equal entries are not always repeated. Blank lines part the entries; values can stand above or below the molecule they belong to.

Key:
[1] = Metabolite profile in rat urine; assay type: in vivo, male Sprague-Dawley rats; details: for % AD (percent of administered dose) / % HPLC (percent of HPLC peak area in the sample extract): group 1C (IV dose) pooled urine; for % of total urinary excretion / Total % AD: group 1C (IV dose) urine; for Total % AD: total of all collections
Procedure: Pooled urine samples were prepared for Groups 1C and 2C by mixing a fixed percent of the total volume for all four animals from the selected time points. For Group 1C, samples of the 1-, 2-, 6-, and 24-h collection intervals were pooled. For Group 2C, a pool of samples from all four animals was prepared for the 24 h collection intervals only. For 1-, 2-, and 6 h collection intervals, a urine sample of a single animal of Group 2A or 2B was used for analysis. All samples were brought to room temperature and vortexed briefly. The samples were diluted as necessary (2- to 20-fold) with appropriate aqueous mobile phase for the selected HPLC method. The pooled and diluted samples from the 24 h collection interval were centrifuged at 2040×g for 10 minutes. All other samples were analyzed without centrifugation. HPLC method 1 was used for HPLC profiling. Selected samples were analyzed by HPLC method 2 for comparison with the metabolite profile generated by microsomal and hepatocyte incubations (Examples 14 and 15) and with the metabolite profile of liver extracts.
Percent of the administered dose (% AD) for parent drug and each metabolite at each collection period=(% of the total radioactivity in the sample attributed to the metabolite)*(total radioactivity expressed as % of the administered dose, recovered during the corresponding collection period).
HPLC analyses of pooled urine samples of all time points were conducted for Group 1C. Metabolites R1, R2, R3, R4, R5, R6, R7 and R8 were characterized based on retention time.
For the PO dose group, a pooled urine sample from the 24-h collection time was analyzed. For 1-, 2-, and 6-h collection times, the majority of the samples had been used for radioanalysis. The remaining samples were insufficient for proportional pooling. Therefore, single animal samples of […] groups were used for HPLC profiling. Metabolites R^1, R^2, R^3, R^4, R^5, R^6, R^7 and R^8 were characterized based on retention time.
Table 50 contains data from single animal samples and pooled samples. To estimate overall distribution of urinary metabolites, it was assumed that the profile from a single animal is reflective of the overall average metabolite profile. Therefore, HPLC distribution data from single animals was used to calculate the percentage of administered dose excreted as various metabolites during the 1-, 2-, and 6-h collection intervals. Metabolites R1, R2, R3, R4, R5, R6, R7 and R8 were characterized based on retention time.

[2] = Rat plasma pharmacokinetics of total radioactivity after [^14C]-Compound 1; assay type: in vivo, male Sprague-Dawley rats; details: for Plasma total radioactivity concentration, Mean: group mean; for Plasma total radioactivity concentration: individual rats; for AUC0-24 of plasma total radioactivity: from average concentrations
Procedure: A preliminary rat metabolism study was conducted with radiolabeled Compound 1. The compound was labeled with [^14C] in the C-8 position of the guanine moiety. The objectives of the study were to determine, 1) the plasma pharmacokinetics of total radioactivity, 2) the time-course of total radioactivity and the amount of 2′-C-methyl guanosine-5′-TP in liver, 3) the major route of excretion, and 4) the metabolic profile in excreta, liver, and plasma.
Isotopically diluted [^14C]-Compound 1 was administered intravenously to male Sprague-Dawley rats at 50 mg/kg or by oral gavage at 100 mg/kg.
The plasma concentration-time data for total radioactivity was analyzed using Microsoft® Office Excel 2003 to obtain the area under the concentration-time curve (AUC). AUC0-24 (area under the concentration-time curve from 0 to 24 h after dosing) was calculated using the linear trapezoidal rule and nominal sampling times. For the IV dose group, concentration at time zero was extrapolated from the concentration data for the first two time points. The maximum (peak) plasma concentrations (Cmax) and the time to peak concentrations (tmax) were the observed values. Descriptive statistics were prepared in Excel.
Radioanalyses of plasma samples were conducted. The plasma concentration data for total radioactivity expressed as μg equivalents/mL are summarized below: […]

% AD (percent of administered dose) ([1]; 1 h collection): 0.05 % AD | % HPLC (percent of HPLC peak area in the sample extract) ([1]; 1 h collection): 0.24% | % AD (percent of administered dose) ([1]; 2 h collection): 0.05 % AD | % HPLC (percent of HPLC peak area in the sample extract) ([1]; 2 h collection): 1.01% | % AD (percent of administered dose) ([1]; 6 h collection): 0.01 % AD | % HPLC (percent of HPLC peak area in the sample extract) ([1]; 6 h collection): 0.37% | % of total urinary excretion [1]: 0.25% | Total % AD [1]: 0.12 % AD
Compound: CC(C)(CO)C(=O)SCCOP(N)(=O)OC[C@H]1O[C@@H](n2cnc3c(=O)[nH]c(N)nc32)[C@](C)(O)[C@@H]1O (single isomer, unassigned; diastereomer 1) [Compd 3 Diastereomer 1]

% AD (percent of administered dose) ([1]; 1 h collection): 0.23 % AD | % HPLC (percent of HPLC peak area in the sample extract) ([1]; 1 h collection): 1.00% | % AD (percent of administered dose) ([1]; 2 h collection): 0.14 % AD | % HPLC (percent of HPLC peak area in the sample extract) ([1]; 2 h collection): 2.69% | % AD (percent of administered dose) ([1]; 6 h collection): 0.03 % AD | % HPLC (percent of HPLC peak area in the sample extract) ([1]; 6 h collection): 1.19% | % of total urinary excretion [1]: 0.84% | Total % AD [1]: 0.39 % AD
Compound: CC(C)(CO)C(=O)SCCOP(N)(=O)OC[C@H]1O[C@@H](n2cnc3c(=O)[nH]c(N)nc32)[C@](C)(O)[C@@H]1O (single isomer, unassigned; diastereomer 2) [Compd 3 Diastereomer 2]

Compound: CC(C)(CO)C(=O)SCCOP(=O)(NCc1ccccc1)OC[C@H]1O[C@@H](n2cnc3c(=O)[nH]c(N)nc32)[C@](C)(O)[C@@H]1O (stereo partly shown) [[^14C] Compound 1]
Plasma total radioactivity concentration, Mean ([2]; IV 50 mg/kg, 0 h (pre-dose)): 0.000 μg Equivalents/mL | Plasma total radioactivity concentration, Mean ([2]; IV 50 mg/kg, 0.083 h): 43.692 μg Equivalents/mL | Plasma total radioactivity concentration, Mean ([2]; IV 50 mg/kg, 0.25 h): 9.195 μg Equivalents/mL | Plasma total radioactivity concentration, Mean ([2]; IV 50 mg/kg, 0.5 h): 4.311 μg Equivalents/mL | Plasma total radioactivity concentration, Mean ([2]; IV 50 mg/kg, 0.75 h): 1.835 μg Equivalents/mL | Plasma total radioactivity concentration, Mean ([2]; IV 50 mg/kg, 1 h): 1.399 μg Equivalents/mL | Plasma total radioactivity concentration, Mean ([2]; IV 50 mg/kg, 2 h): 2.175 μg Equivalents/mL | Plasma total radioactivity concentration, Mean ([2]; IV 50 mg/kg, 4 h): 0.799 μg Equivalents/mL | Plasma total radioactivity concentration, Mean ([2]; IV 50 mg/kg, 6 h): 2.652 μg Equivalents/mL | Plasma total radioactivity concentration, Mean ([2]; IV 50 mg/kg, 10 h): 0.605 μg Equivalents/mL | Plasma total radioactivity concentration, Mean ([2]; IV 50 mg/kg, 24 h): 0.570 μg Equivalents/mL | Plasma total radioactivity concentration ([2]; IV 50 mg/kg, Group 1A, 0.25 h, 50 mg/kg): 10.883 μg Equivalents/mL and 9.006 μg Equivalents/mL and 7.913 μg Equivalents/mL and 8.978 μg Equivalents/mL | Plasma total radioactivity concentration ([2]; IV 50 mg/kg, Group 1A, 1 h, 50 mg/kg): 1.371 μg Equivalents/mL and 1.358 μg Equivalents/mL and 1.600 μg Equivalents/mL and 1.267 μg Equivalents/mL | Plasma total radioactivity concentration ([2]; IV 50 mg/kg, Group 1A, 2 h, 50 mg/kg): 2.202 μg Equivalents/mL and 1.861 μg Equivalents/mL and 2.545 μg Equivalents/mL and 2.092 μg Equivalents/mL | Plasma total radioactivity concentration ([2]; IV 50 mg/kg, Group 1B, 0 h (pre-dose)): 0.000 μg Equivalents/mL | Plasma total radioactivity concentration ([2]; IV 50 mg/kg, Group 1B, 0.75 h, 50 mg/kg): 1.576 μg Equivalents/mL and 1.600 μg Equivalents/mL and 1.710 μg Equivalents/mL and 2.454 μg Equivalents/mL | Plasma total radioactivity concentration ([2]; IV 50 mg/kg, Group 1B, 4 h, 50 mg/kg): 0.755 μg Equivalents/mL and 0.713 μg Equivalents/mL and 0.938 μg Equivalents/mL and 0.790 μg Equivalents/mL | Plasma total radioactivity concentration ([2]; IV 50 mg/kg, Group 1B, 6 h, 50 mg/kg): 2.376 μg Equivalents/mL and 2.233 μg Equivalents/mL and 2.160 μg Equivalents/mL and 3.837 μg Equivalents/mL | Plasma total radioactivity concentration ([2]; IV 50 mg/kg, Group 1C, 0.083 h, 50 mg/kg): 50.653 μg Equivalents/mL and 45.178 μg Equivalents/mL and 35.246 μg Equivalents/mL and 37.600 μg Equivalents/mL | Plasma total radioactivity concentration ([2]; IV 50 mg/kg, Group 1C, 0.5 h, 50 mg/kg): 4.824 μg Equivalents/mL and 4.036 μg Equivalents/mL and 4.072 μg Equivalents/mL and 3.857 μg Equivalents/mL | Plasma total radioactivity concentration ([2]; IV 50 mg/kg, Group 1C, 10 h, 50 mg/kg): 0.566 μg Equivalents/mL and 0.675 μg Equivalents/mL and 0.573 μg Equivalents/mL and 0.562 μg Equivalents/mL | Plasma total radioactivity concentration ([2]; IV 50 mg/kg, Group 1C, 24 h, 50 mg/kg): 0.515 μg Equivalents/mL and 0.759 μg Equivalents/mL and 0.553 μg Equivalents/mL and 0.453 μg Equivalents/mL | AUC0-24 of plasma total radioactivity ([2]; IV 50 mg/kg): 36.000 μg equivalents · h/mL | Plasma total radioactivity concentration, Mean ([2]; PO 100 mg/kg, 0 h (pre-dose)): 0.000 μg Equivalents/mL | Plasma total radioactivity concentration, Mean ([2]; PO 100 mg/kg, 0.083 h): 0.283 μg Equivalents/mL | Plasma total radioactivity concentration, Mean ([2]; PO 100 mg/kg, 0.25 h): 0.346 μg Equivalents/mL | Plasma total radioactivity concentration, Mean ([2]; PO 100 mg/kg, 0.5 h): 0.316 μg Equivalents/mL | Plasma total radioactivity concentration, Mean ([2]; PO 100 mg/kg, 0.75 h): 0.315 μg Equivalents/mL | Plasma total radioactivity concentration, Mean ([2]; PO 100 mg/kg, 4 h): 0.625 μg Equivalents/mL | Plasma total radioactivity concentration, Mean ([2]; PO 100 mg/kg, 6 h): 1.331 μg Equivalents/mL | Plasma total radioactivity concentration, Mean ([2]; PO 100 mg/kg, 10 h): 0.622 μg Equivalents/mL | Plasma total radioactivity concentration, Mean ([2]; PO 100 mg/kg, 24 h): 0.399 μg Equivalents/mL | Plasma total radioactivity concentration ([2]; PO 100 mg/kg, Group 2A, 0.25 h, 100 mg/kg): 0.216 μg Equivalents/mL and 0.433 μg Equivalents/mL and 0.474 μg Equivalents/mL and 0.260 μg Equivalents/mL | Plasma total radioactivity concentration ([2]; PO 100 mg/kg, Group 2B, 0 h (pre-dose)): 0.000 μg Equivalents/mL | Plasma total radioactivity concentration ([2]; PO 100 mg/kg, Group 2B, 0.75 h, 100 mg/kg): 0.346 μg Equivalents/mL and 0.327 μg Equivalents/mL and 0.331 μg Equivalents/mL and 0.256 μg Equivalents/mL | Plasma total radioactivity concentration ([2]; PO 100 mg/kg, Group 2B, 4 h, 100 mg/kg): 0.578 μg Equivalents/mL and 0.618 μg Equivalents/mL and 0.675 μg Equivalents/mL and 0.630 μg Equivalents/mL | Plasma total radioactivity concentration ([2]; PO 100 mg/kg, Group 2B, 6 h, 100 mg/kg): 1.157 μg Equivalents/mL and 1.163 μg Equivalents/mL and 1.522 μg Equivalents/mL and 1.480 μg Equivalents/mL | Plasma total radioactivity concentration ([2]; PO 100 mg/kg, Group 2C, 0.083 h, 100 mg/kg): 0.228 μg Equivalents/mL (2×) and 0.394 μg Equivalents/mL and 0.596 μg Equivalents/mL | Plasma total radioactivity concentration ([2]; PO 100 mg/kg, Group 2C, 0.5 h, 100 mg/kg): 0.236 μg Equivalents/mL and 0.335 μg Equivalents/mL and 0.378 μg Equivalents/mL and 0.408 μg Equivalents/mL | Plasma total radioactivity concentration ([2]; PO 100 mg/kg, Group 2C, 10 h, 100 mg/kg): 0.806 μg Equivalents/mL and 0.555 μg Equivalents/mL and 0.506 μg Equivalents/mL and 0.511 μg Equivalents/mL | Plasma total radioactivity concentration ([2]; PO 100 mg/kg, Group 2C, 24 h, 100 mg/kg): 0.450 μg Equivalents/mL and 0.303 μg Equivalents/mL and 0.458 μg Equivalents/mL and 0.384 μg Equivalents/mL | AUC0-24 of plasma total radioactivity ([2]; PO 100 mg/kg): 15.445 μg equivalents · h/mL
